# Laboratory results from patent US20110195911A1, “SYNTHETIC ANALOGS OF THE JUXTAMEMBRANE DOMAIN OF IGF1R AND USES THEREOF” (THE UNITED STATES OF AMERICA,AS REPRESENTED BY THE …, priority 2008, published 2011).
# Where a SMILES comes first, the peptide text is derived from it. [ ]: non-standard residue; d: D form. The star is where a group is joined. Palmitoyl = CCCCCCCCCCCCCCCC(=O)*
# Test system: MCF-7 breast cancer cells
# Test: MTT cell toxicity assay in MCF-7 breast cancer cells
# Assay type: cell-based
# Conditions: MCF-7 cells, MTT; for GI50 / TGI: final 0.5% FBS, two days with compound; for TGI: concentration of total growth inhibition (cytostatic); for growth inhibition / potency in MCF-7 cells (in words): comparison with related peptides
# Experimental: Cell Toxicity Assays: MCF-7 (breast cancer), T47D (breast cancer), Colo 205 (colon cancer), JM-1 (rat hepatoma), Sk Me1-2 (melanoma), PLC (human hepatoma), and HepG2 (human hepatoma) cells were obtained from American Type Cell Culture Collection. MCF-7 cells were grown in RPMI medium supplemented with 10% Fetal Bovine Serum. The rest of the cell lines were grown in DMEM medium supplemented with 10% Fetal Bovine Serum.
# MTT 43-(4,5-Dimethylthiazol-2-yl)-2,5-diphenyltetrazolium) cell assay was performed using MCF-7 breast cancer cells. For the assay, cells were seeded into 96 well plates in medium containing 1% Fetal Bovine Serum and 100 μL of a cell suspension containing 5000 cells per well. Wells containing medium-only, and wells containing untreated cells, served as controls.
# Seeded cells were allowed to attach and grow in the wells for 24 hours. A 5 mM stock solution of each peptide was made by dissolving approximately 1 mg of peptide in appropriate amount of DMSO. 2 mL dilutions were used to make 0.2 μM, 1.0 μM, 5.0 μM, and 10.0 μM concentration solutions of the compounds in serum-free medium. 100 μl, of the resulting 2× solutions were added to the corresponding wells to provide a final FBS concentration of 0.5% and 0.1 μM, 0.5 μM, 2.5 μM, and 5.0 μM dilutions of inhibitors. The cells were incubated with test compounds for two days. The control wells were given 100 μL of medium to ensure maximum similarity to the test wells so that all of the wells had 200 μL of medium during the growth period. An individual plate was made for Time Zero, to which the dye was added at the time of addition of compounds.
# An alternative potency assay was used to test compounds in MCF-7 (breast cancer), T47D (breast cancer), Colo 205 (colon cancer), JM-1 (rat hepatoma), Sk MeI-2 (melanoma), PLC (human hepatoma), and HepG2 (human hepatoma) cells. Cells were suspended at a concentration of approximately 5000 cells per 100 μL of suspension in a 5% FBS RPMI medium. The cells were seeded into 96-count wells and incubated over night. After one day's incubation, the 5% FBS medium was aspirated and replaced with 100 μL of no serum RPMI medium containing 1 mg Bovine Serum Albumin (BSA) per 1 mL RPMI. Various concentrations of the test compounds were prepared by dilution in no-serum medium containing 1 mg BSA/mL. 75 μL of the test compound solutions were added to the wells, and the cells were allowed to incubate for 15-20 minutes, after which time 25 μL of human recombinant IGF-1 (Peprotech) solution was added to the wells to attain final concentrations of 10 ng IGF-1/mL medium. The control wells were given 175 μL of no-serum medium in addition to 25 μL of IGF-1 solution. An individual plate was made for time zero, in which the medium was also aspirated and replaced with 175 μL of no-serum medium and 25 μL of IGF-1. 15 μL of MTT dye was added and let incubate for 4 hours, after which time a stop stop solubilization solution was added. The stop solution lysed the cells and released the dye reduced by the remaining living cells. Absorbance of the wells at 544 nm was determined by a FLUOstar/POLARstar Galaxy (BMG Lab Technologies GmbH) microplate reader. The activity was calculated from the data using the formula: 100×[(T−T0)/(C−T0)] for T>T0 and 100×[(T−T0)/T0] for T<T0, wherein T0 corresponds to cell density at the time of drug addition, “T” is the optical density of the test well after a 48-h period of exposure to test drug, and “C” is the control optical density. The GI50 measures the growth inhibitory power of the test agent, and is defined as the concentration of test drug where 100×(T−T0)/(C−T0)=50. The TGI is the concentration of test drug where 100×(T−T0)/(C−T0)=0. Thus, the TGI signifies a cytostatic effect.
SMILES,GI50 [nM],TGI [µM],growth inhibition / potency in MCF-7 cells (in words),cell killing activity (in words)
"CCCCCCCCCCCCCCCC(=O)N[C@@H](CO)C(=O)N[C@@H](CCCNC(=N)N)C(=O)N[C@@H](CC(C)C)C(=O)NCC(=O)N[C@@H](CC(N)=O)C(=O)NCC(=O)N[C@H](C(=O)N[C@@H](CC(C)C)C(=O)N[C@@H](Cc1ccc(O)cc1)C(N)=O)C(C)C [Peptide 19, Pal-SRLGNGVLY-NH2] (Palmitoyl-SRLGNGVLY-NH2)",150 ± 50,2.0 ± 0.1,gradual reduction in potency,–
"CCCCCCCCCCCCCCCC(=O)N[C@@H](CCCNC(=N)N)C(=O)N[C@@H](CC(C)C)C(=O)NCC(=O)N[C@@H](CC(N)=O)C(=O)NCC(=O)N[C@H](C(=O)N[C@@H](CC(C)C)C(=O)N[C@@H](Cc1ccc(O)cc1)C(N)=O)C(C)C [Peptide 20, Pal-RLGNGVLY-NH2] (Palmitoyl-RLGNGVLY-NH2)",200 ± 6,>5,gradual reduction in potency,–
"CCCCCCCCCCCCCCCC(=O)N[C@@H](C(=O)N[C@H](CO)C(=O)N[C@H](C)C(=O)N[C@H](Cc1ccc(O)cc1)C(=O)N[C@H](CC(C)C)C(=O)N[C@@H](C(=O)NCC(=O)N[C@H](CC(N)=O)C(=O)NCC(=O)N[C@H](CC(C)C)C(=O)N[C@H](CCCNC(=N)N)C(=O)N[C@H](CO)C(=O)N[C@H](CC(N)=O)C(=O)N[C@H](CC(N)=O)C(=O)N[C@H](CCCNC(=N)N)C(N)=O)C(C)C)C(C)C [Peptide 21, Pal-VSAYLVGNGLRSNNR-NH2] (Palmitoyl-[dV][dS][dA][dY][dL][dV]G[dN]G[dL][dR][dS][dN][dN][dR]-NH2)",–,0.1 ± 0.005,did not improve or diminish the inhibitory activity,–
"CCCCCCCCCCCCCCCC(=O)N[C@H](Cc1ccc(O)cc1)C(=O)N[C@H](CC(C)C)C(=O)N[C@@H](C(=O)NCC(=O)N[C@H](CC(N)=O)C(=O)NCC(=O)N[C@H](CC(C)C)C(=O)N[C@H](CCCNC(=N)N)C(=O)N[C@H](CO)C(=O)N[C@H](CC(N)=O)C(=O)N[C@H](CC(N)=O)C(=O)N[C@H](CCCNC(=N)N)C(N)=O)C(C)C [Peptide 22, Pal-YLVGNGLRSNNR-NH2] (Palmitoyl-[dY][dL][dV]G[dN]G[dL][dR][dS][dN][dN][dR]-NH2)",–,0.5 ± 0.025,equipotent to peptide 18,enhanced cell killing activity
CCCCCCCCCCCCCCCC(=O)N[C@@H](Cc1c[nH]cn1)C(=O)N[C@@H](CCCNC(=N)N)C(=O)N[C@@H](CCCCN)C(=O)N[C@@H](CCCNC(=N)N)C(=O)N[C@@H](CC(N)=O)C(=O)N[C@@H](CC(N)=O)C(=O)N[C@@H](CO)C(=O)N[C@@H](CCCNC(=N)N)C(=O)N[C@@H](CC(C)C)C(=O)NCC(=O)N[C@@H](CC(N)=O)C(=O)NCC(=O)N[C@H](C(=O)N[C@@H](CC(C)C)C(=O)N[C@@H](Cc1ccc(O)cc1)C(=O)N[C@@H](C)C(=O)N[C@@H](CO)C(=O)N[C@H](C(=O)N[C@@H](CC(N)=O)C(=O)N1CCC[C@H]1C(N)=O)C(C)C)C(C)C [Peptide 23] (Palmitoyl-HRKRNNSRLGNGVLYASVNP-NH2),100 ± 50,>5,increased the potency,–
CCCCCCCCCCCCCCCC(=O)N[C@H](C(=O)N[C@@H](Cc1ccccc1)C(=O)N[C@@H](Cc1c[nH]cn1)C(=O)N[C@@H](CCCNC(=N)N)C(=O)N[C@@H](CCCCN)C(=O)N[C@@H](CCCNC(=N)N)C(=O)N[C@@H](CC(N)=O)C(=O)N[C@@H](CC(N)=O)C(=O)N[C@@H](CO)C(=O)N[C@@H](CCCNC(=N)N)C(=O)N[C@@H](CC(C)C)C(=O)NCC(=O)N[C@@H](CC(N)=O)C(=O)NCC(=O)N[C@H](C(=O)N[C@@H](CC(C)C)C(=O)N[C@@H](Cc1ccc(O)cc1)C(=O)N[C@@H](C)C(=O)N[C@@H](CO)C(=O)N[C@H](C(=O)N[C@@H](CC(N)=O)C(N)=O)C(C)C)C(C)C)C(C)C [Peptide 24] (Palmitoyl-VFHRKRNNSRLGNGVLYASVN-NH2),100 ± 50,1.1 ± 0.1,–,–
"CCCCCCCCCCCCCCCC(=O)N[C@@H](CCCCN)C(=O)N[C@@H](CCCNC(=N)N)C(=O)N[C@@H](CC(N)=O)C(=O)N[C@@H](CC(N)=O)C(=O)N[C@@H](CO)C(=O)N[C@@H](CCCNC(=N)N)C(=O)N[C@@H](CC(C)C)C(=O)NCC(=O)N[C@@H](CC(N)=O)C(=O)NCC(=O)N[C@H](C(=O)N[C@@H](CC(C)C)C(=O)N[C@@H](Cc1ccc(O)cc1)C(N)=O)C(C)C [Peptide 27, Pal-KRNNSRLGNGVLY-NH2] (Palmitoyl-KRNNSRLGNGVLY-NH2)",1100 ± 60,2.5 ± 0.5,–,–
"CCCCCCCCCCCCCCCC(=O)N[C@@H](CCCNC(=N)N)C(=O)N[C@@H](CC(N)=O)C(=O)N[C@@H](CC(N)=O)C(=O)N[C@@H](CO)C(=O)N[C@@H](CCCNC(=N)N)C(=O)N[C@@H](CC(C)C)C(=O)NCC(=O)N[C@@H](CC(N)=O)C(=O)NCC(=O)N[C@H](C(=O)N[C@@H](CC(C)C)C(=O)N[C@@H](Cc1ccccc1)C(N)=O)C(C)C [Peptide 29, Pal-RNNSRLGNGVLF-NH2] (Palmitoyl-RNNSRLGNGVLF-NH2)",100 ± 5,1.2 ± 0.05,–,–
"CCCCCCCCCCCCCCCC(=O)N[C@@H](CCCNC(=N)N)C(=O)N[C@@H](CC(N)=O)C(=O)N[C@@H](CC(N)=O)C(=O)N[C@@H](CO)C(=O)N[C@@H](CCCNC(=N)N)C(=O)N[C@@H](CC(C)C)C(=O)NCC(=O)N[C@@H](CC(N)=O)C(=O)NCC(=O)N[C@H](C(=O)N[C@@H](CC(C)C)C(N)=O)C(C)C [Peptide 30, Pal-RNNSRLGNGVL-NH2] (Palmitoyl-RNNSRLGNGVL-NH2)",1700 ± 50,3.7 ± 0.05,–,–
"CCCCCCCCCCCCCCCC(=O)N[C@@H](CCCNC(=N)N)C(=O)N[C@@H](CC(N)=O)C(=O)N[C@@H](CC(N)=O)C(=O)N[C@@H](CO)C(=O)N[C@@H](CCCNC(=N)N)C(=O)N[C@@H](CC(C)C)C(=O)NCC(=O)N[C@@H](CC(N)=O)C(=O)NCC(=O)N[C@H](C(=O)N[C@@H](CC(C)C)C(=O)N[C@@H](Cc1ccc(O)cc1)C(=O)N[C@@H](C)C(N)=O)C(C)C [Peptide 33, Pal-RNNSRLGNGVLYA-NH2] (Palmitoyl-RNNSRLGNGVLYA-NH2)",100 ± 50,>5,–,–
"CCCCCCCCCCCCCCCC(=O)N[C@@H](CCCNC(=N)N)C(=O)N[C@@H](CC(N)=O)C(=O)N[C@@H](CC(N)=O)C(=O)N[C@@H](CO)C(=O)N[C@@H](CCCNC(=N)N)C(=O)N[C@@H](CC(C)C)C(=O)NCC(=O)N[C@@H](CC(N)=O)C(=O)NCC(=O)N[C@H](C(=O)N[C@@H](CC(C)C)C(=O)N[C@@H](Cc1ccc(O)cc1)C(=O)N[C@@H](C)C(=O)N[C@@H](CO)C(N)=O)C(C)C [Peptide 34, Pal-RNNSRLGNGVLYAS-NH2] (Palmitoyl-RNNSRLGNGVLYAS-NH2)",40 ± 1,>5,–,–
"CCCCCCCCCCCCCCCC(=O)N[C@@H](CCCNC(=N)N)C(=O)N[C@@H](CC(N)=O)C(=O)N[C@@H](CC(N)=O)C(=O)N[C@@H](CO)C(=O)N[C@@H](CCCNC(=N)N)C(=O)N[C@@H](CC(C)C)C(=O)NCC(=O)N[C@@H](CC(N)=O)C(=O)NCC(=O)N[C@H](C(=O)N[C@@H](CC(C)C)C(=O)N[C@@H](Cc1ccc(O)cc1)C(=O)N[C@@H](C)C(=O)N[C@@H](CO)C(=O)N[C@H](C(N)=O)C(C)C)C(C)C [Peptide 35, Pal-RNNSRLGNGVLYASV-NH2] (Palmitoyl-RNNSRLGNGVLYASV-NH2)",50 ± 1,2.5 ± 0.5,–,–
